Earlier results on 2 molecules are cited in patent US7335681B2, “Amino ceramide-like compounds and therapeutic methods of use” (The Regents of the University of Michigan, priority 2001, dated 2008).

For series [1], the system named is Ehrlich ascites carcinoma cells.
Another series deals with E. coli. The following applies: PDMP treatment.
The test system of another series is GlcCer. Particulars: in vivo.

In the case of `CCCCCCCCCC(=O)N[C@H](CN1CCOCC1)[C@H](O)c1ccccc1` [PDMP, 1R-phenyl-2R-decanoylamino-3-morpholino-1-propanol], the “antitumor effect in mice” value in series [1] is “cure mice of cancer”. The “cellular content of PKC” value in the series with PKC is recorded as “lower the cellular content of PKC”. The “adherence of E. coli to mammalian cells” value in the series on E. coli is recorded as “reduces the adherence”.
`CN(C)CCCN1c2ccccc2Sc2ccc(Cl)cc21` [chlorpromazine]: the “tissue levels of GlcCer” value in the series with GlcCer was “lower tissue levels of GlcCer”.
